Biological target: Carbonic anhydrase 1 (Homo sapiens, UniProt P00915)
Experiment: Inhibition of human carbonic anhydrase 1 using 4-nitrophenylacetate as substrate after 3 mins using spectrophotometry by Lineweaver-Burk plot analysis

Sequence of Carbonic anhydrase 1 (P00915 whole entry): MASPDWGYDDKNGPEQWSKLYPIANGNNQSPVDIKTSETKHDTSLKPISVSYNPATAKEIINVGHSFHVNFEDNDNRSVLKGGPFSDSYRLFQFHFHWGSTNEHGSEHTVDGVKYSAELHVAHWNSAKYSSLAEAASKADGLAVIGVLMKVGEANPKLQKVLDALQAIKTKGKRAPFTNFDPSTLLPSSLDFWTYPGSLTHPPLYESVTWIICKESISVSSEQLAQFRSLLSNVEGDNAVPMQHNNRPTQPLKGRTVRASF

Q: With `C[C@]12CC[C@@H]3c4ccc(OS(N)(=O)=O)cc4CC[C@H]3[C@@H]1CCC2=O` [EMATE] as the compound, how does the Ki read?
A: 12.3 µM

Q: With `c1ccc2[nH]ccc2c1` [INDOLE] as the compound, how does the Ki read?
A: 27.4 µM

Biological target: Carbonic anhydrase 2 (Homo sapiens, UniProt P00918)
Experiment: Inhibition of human carbonic anhydrase 2 using 4-nitrophenylacetate as substrate after 3 mins using spectrophotometry by Lineweaver-Burk plot analysis

Q: For `c1ccc2[nH]ccc2c1` [INDOLE], which Ki is on record?
A: 32.5 µM

Biological target: Carbonic anhydrase 6 (Homo sapiens, UniProt P23280)
Experiment: Inhibition of human carbonic anhydrase 6 using 4-nitrophenylacetate as substrate after 3 mins using spectrophotometry by Lineweaver-Burk plot analysis

Sequence of Carbonic anhydrase 6 (P23280 whole entry): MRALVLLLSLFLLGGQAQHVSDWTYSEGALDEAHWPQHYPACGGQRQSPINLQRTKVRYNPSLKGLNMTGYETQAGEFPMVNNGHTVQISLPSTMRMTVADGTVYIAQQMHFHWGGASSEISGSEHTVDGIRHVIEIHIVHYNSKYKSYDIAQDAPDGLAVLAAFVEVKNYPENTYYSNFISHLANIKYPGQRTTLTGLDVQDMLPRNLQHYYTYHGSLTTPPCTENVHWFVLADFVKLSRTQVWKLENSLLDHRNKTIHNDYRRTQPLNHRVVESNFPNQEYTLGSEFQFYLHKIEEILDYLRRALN

Q: With `C[C@]12CC[C@@H]3c4ccc(OS(N)(=O)=O)cc4CC[C@H]3[C@@H]1CCC2=O` [EMATE] as the compound, how does the Ki read?
A: 1.86 µM

Q: `c1ccc2[nH]ccc2c1` [INDOLE] was tested. Which Ki did it give?
A: 3.63 µM

Biological target: Carbonic anhydrase 4 (Homo sapiens, UniProt P22748)
Experiment: Inhibition of human carbonic anhydrase 4 using 4-nitrophenylacetate as substrate after 3 mins using spectrophotometry by Lineweaver-Burk plot analysis

Sequence of Carbonic anhydrase 4 (P22748 whole entry): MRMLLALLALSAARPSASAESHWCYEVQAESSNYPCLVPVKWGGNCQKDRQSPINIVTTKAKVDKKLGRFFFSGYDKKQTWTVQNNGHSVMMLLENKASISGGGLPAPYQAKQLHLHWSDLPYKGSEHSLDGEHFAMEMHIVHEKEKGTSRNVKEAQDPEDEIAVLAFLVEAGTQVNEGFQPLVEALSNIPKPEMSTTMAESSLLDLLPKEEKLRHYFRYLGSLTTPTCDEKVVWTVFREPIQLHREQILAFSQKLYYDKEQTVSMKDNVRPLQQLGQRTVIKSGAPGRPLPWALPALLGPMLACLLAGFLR

Q: For `C[C@]12CC[C@@H]3c4ccc(OS(N)(=O)=O)cc4CC[C@H]3[C@@H]1CCC2=O` [EMATE], which Ki is on record?
A: 1.04 µM

Q: With `c1ccc2[nH]ccc2c1` [INDOLE] as the compound, how does the Ki read?
A: 2.33 µM

Biological target: T1, Carbonic anhydrase 3 (Bos taurus, UniProt Q3SZX4)
T1 sequence (Q3SZX4 whole entry): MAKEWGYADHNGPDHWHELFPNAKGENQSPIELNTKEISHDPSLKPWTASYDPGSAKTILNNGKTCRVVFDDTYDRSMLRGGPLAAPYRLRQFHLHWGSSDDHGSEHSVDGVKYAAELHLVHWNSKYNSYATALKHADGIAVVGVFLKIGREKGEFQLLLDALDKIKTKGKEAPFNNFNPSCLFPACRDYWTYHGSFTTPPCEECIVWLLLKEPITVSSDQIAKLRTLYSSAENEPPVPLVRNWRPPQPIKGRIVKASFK
Experiment: Inhibition of bovine carbonic anhydrase 3 using 4-nitrophenylacetate as substrate after 3 mins using spectrophotometry by Lineweaver-Burk plot analysis

Q: `COc1cc2c(c(OC)c1)-c1[nH]c3ccccc3c1C2` was tested. Which Ki did it give?
A: 14.3 µM

Q: With `COc1ccc2c(c1)-c1[nH]c3ccccc3c1C2` as the compound, how does the Ki read?
A: 15.6 µM

Q: For `Oc1ccc(O)c2c1Cc1c-2[nH]c2ccccc12`, which Ki is on record?
A: 4.34 µM

Q: `Brc1ccc2c(c1)Cc1c-2[nH]c2ccccc12` was tested. Which Ki did it give?
A: 8.51 µM

Q: With `Fc1ccc2c(c1)Cc1c-2[nH]c2ccccc12` as the compound, how does the Ki read?
A: 8.63 µM

Q: Which Ki does the source give for `Oc1ccc2c(c1)Cc1c-2[nH]c2ccccc12` here?
A: 9.08 µM

Q: With `COc1ccc(OC)c2c1Cc1c-2[nH]c2ccccc12` as the compound, how does the Ki read?
A: 11.2 µM

Q: `Oc1cc2c(cc1O)-c1[nH]c3ccccc3c1C2` was tested. Which Ki did it give?
A: 5.17 µM

Q: Which Ki does the source give for `Clc1ccc2c(c1)Cc1c-2[nH]c2ccccc12` here?
A: 8.72 µM

Q: For `c1ccc2c(c1)Cc1c-2[nH]c2ccccc12`, which Ki is on record?
A: 17.8 µM

Q: For `Oc1cccc2c1-c1[nH]c3ccccc3c1C2`, which Ki is on record?
A: 9.62 µM

Q: For `Oc1ccc2c(c1O)Cc1c-2[nH]c2ccccc12`, which Ki is on record?
A: 2.13 µM

Q: Which Ki does the source give for `COc1cccc2c1Cc1c-2[nH]c2ccccc12` here?
A: 16.3 µM

Q: With `Oc1cc(O)c2c(c1)Cc1c-2[nH]c2ccccc12` as the compound, how does the Ki read?
A: 4.63 µM

Q: With `COc1ccc2c(c1OC)Cc1c-2[nH]c2ccccc12` as the compound, how does the Ki read?
A: 10.3 µM

Q: With `c1ccc2c3c([nH]c2c1)-c1cc2c(cc1C3)OCO2` as the compound, how does the Ki read?
A: 12.7 µM

Q: `Oc1cccc2c1Cc1c-2[nH]c2ccccc12` was tested. Which Ki did it give?
A: 8.84 µM

Q: Which Ki does the source give for `COc1ccc2c(c1)Cc1c-2[nH]c2ccccc12` here?
A: 14.9 µM

Q: With `COc1cc2c(cc1OC)-c1[nH]c3ccccc3c1C2` as the compound, how does the Ki read?
A: 15.8 µM

Q: `Oc1ccc2c(c1)-c1[nH]c3ccccc3c1C2` was tested. Which Ki did it give?
A: 9.42 µM

Q: With `COc1ccccc1OC` [1,2-DIMETHOXYBENZENE] as the compound, how does the Ki read?
A: 4.24 µM

Q: `Oc1ccccc1O` [CATECHOL] was tested. Which Ki did it give?
A: 3.48 µM

Q: How did the Ki turn out when `C[C@]12CC[C@@H]3c4ccc(OS(N)(=O)=O)cc4CC[C@H]3[C@@H]1CCC2=O` [EMATE] was run?
A: 12.4 µM

Q: `CCOc1ccc2nc(S(N)(=O)=O)sc2c1` [ETHOXZOLAMIDE] was tested. Which Ki did it give?
A: 9.44 µM

Q: For `c1ccc2[nH]ccc2c1` [INDOLE], which Ki is on record?
A: 17.6 µM

Q: For `NS(=O)(=O)Cc1noc2ccccc12` [ZONISAMIDE], which Ki is on record?
A: 8.51 µM

Reference: ChEMBL document CHEMBL1944554, “Structure-activity relationships for the interaction of 5,10-dihydroindeno[1,2-b]indole derivatives with human and bovine carbonic anhydrase isoforms I, II, III, IV and VI” (Eur J Med Chem, 2012)
